Measured values reported in US10398717B2, “Pharmaceutical composition based on a hepatoprotector and prebiotic, and method for administrating” (priority 2008, dated 2019).

What was measured:
[1] = test system: patients with diffuse liver diseases (cirrhosis, hepatitis) with intrhepatic cholestasis syndrome; settings: human, in vivo; cited from earlier work
colon contents = settings: in vivo; cited from earlier work
[2] = cited from earlier work
Sprague-Dawley rats = assay: High-fat diet induced non-alcoholic hepatitis model; type: in vivo; settings: liver histology, day 121; oral administration during 90 days
Procedure: The control group (Group 4, n=14 in each group) was administered an equal amount of 1% methyl cellulose suspension. The animals were monitored for 120 days on the background of continuous pathology induction. Administration of drugs began after 30 days from the beginning of diet supplementation (10 % lard and 2% cholesterol for each 100 g feed). The effect of therapy was assessed by biochemical parameters (ALT, AST, triglycerides) and liver histology. On day 121, animals were euthanized and liver histology was performed. In the control group, […] of animals developed steatosis.

Question: For `C[S+](CC[C@H](N)C(=O)[O-])C[C@H]1O[C@@H](n2cnc3c(N)ncnc32)[C@H](O)[C@@H]1O` (stereo partly drawn) [ademethionine, S-adenosil-L-metionine], which “duration of antiasthenic, anticholestatic and hepatoprotective effects after the treatment was stopped” value [1] is on record?
Answer: 3 months

Question: And the “patients with decrease of intensity of asthenic syndrome” value [1]?
Answer: 46%

Question: What about the “patients with disappearance of asthenic syndrome” value [1] of the same compound?
Answer: 54%

Question: With `OC[C@H]1O[C@@H](O[C@@H]2[C@@H](CO)O[C@](O)(CO)[C@H]2O)[C@H](O)[C@@H](O)[C@H]1O` [lactulose, 4-0-D-galactopyranosyl-D-fructose] as the compound, how does the “increase of volume of colon contents” value (colon contents) read?
Answer: about 30%

Question: What about the solubility in water [2] of the same compound?
Answer: very soluble in water

Question: With `C[C@H](CCC(=O)O)[C@H]1CC[C@H]2[C@@H]3[C@@H](O)C[C@@H]4C[C@H](O)CC[C@]4(C)[C@H]3CC[C@]12C` [Group 3, ursodeoxycholic acid] as the compound, how does the “rats in which signs of steatosis, ballooning, and inflammation improved” value (Sprague-Dawley rats) read?
Answer: 50%
